The text below walks through data of article PMC9481570, “A small molecule antagonist of SMN disrupts the interaction between SMN and RNAP II” (Nature Communications, 2022).

Several values for one entry are separate records, joined by “and”; a condition that tells them apart may be missing. Identical values can stand only once. Like-named read-outs stand apart in the source and are kept apart here.

Experiment [1] deals with UHRF1_TTD R296-binding pocket mutants. The experiment in a line: ITC binding to UHRF1 TTD R296-binding pocket mutants. The following applies: Supplementary Fig. 9e. The source says: (§1) The coding DNA fragments of following Tudor domains were cloned into pET28-MHL vector: SMN (aa 82–147), UHRF1 (aa 126–285), SMNDC1 (aa 53–130), TDRD3 (aa 554–611), SND1 (aa 650–910), TDRD2 (aa 327–420), FXR1 (aa 2–132), PHF1 (aa 28–87), SGF29 (aa 115–293), JMJD2A (aa 897–1101), 53BP1 (aa 1483–1606), SETDB1 (aa 190–410), LBR (aa 1–67), ZGPAT (aa 120–271). The coding regions of chromodomain of CBX7 (aa 8–62), PWWP domain of DNMT3A (aa 275–417), WD40 repeats of WDR5 (aa 24–334) and CW domain of ZCWPW2 (aa 21–78) were also subcloned into pET28-MHL vector to generate N-terminally His-tagged fusion protein. The MBT repeats of L3MBTL1 (aa 200–522) and L3MBTL2 (aa 170–625) were subcloned into pET28GST-LIC vector to generate N-terminally GST-His-tagged fusion protein. All the plasmids were generated by ligase independent cloning (Vazyme Biotech, C112 or ABclonal Technology, RK21020). […] The molecular weight of all protein samples was measured by mass spectrometry.
(§2) For the ITC measurement, the concentrated proteins were diluted into 20 mM Tris-HCl, pH 7.5, 150 mM NaCl (ITC buffer); the lyophilized compounds were dissolved in the same buffer, and the pH value was adjusted by adding 2 M NaOH or 2 M HCl. […] Compound concentrations were calculated from the mass and the volume of the solvent. […]

In a further experiment the target is T1, SMN_N132D (Homo sapiens, UniProt Q16637, N132D).
T1 construct: cloned into pET28-MHL vector: SMN (aa 82–147); His (N, cleaved yes); made in house; host or cells: E. coli BL21 (DE3) Codon plus RIL
T1 sequence (Q16637 82-147 N132D): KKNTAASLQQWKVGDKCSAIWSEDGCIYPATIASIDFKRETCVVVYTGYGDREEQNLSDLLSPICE
Description: ITC binding to SMN Tudor mutant N132D. The following applies: Fig. 3d.
Description: as §1, §2

A further experiment has as its target TDRD3 (Homo sapiens, UniProt Q9H7E2). The experiment in a line: ITC binding to TDRD3. The arrangement: TDRD3 (aa 554–611); His (N, cleaved yes); made in house; host or cells: E. coli BL21 (DE3) Codon plus RIL. The following applies: Supplementary Figs. 2 and 11b (VP-ITC); read-out: Kd, ITC binding curve, TDRD3.
Description: as §1, §2

The target of the next experiment is T2, SMN_W102A (Homo sapiens, UniProt Q16637, W102A).
T2 construct: SMN (aa 82–147); His (N, cleaved yes); made in house; host or cells: E. coli BL21 (DE3) Codon plus RIL
T2 sequence (Q16637 82-147 W102A): as the sequence (Q16637 82-147 N132D) above, with W21A, D51N counted along it
The experiment in a line: ITC binding to SMN Tudor mutant W102A. The following applies: Fig. 3d.
Description: as §1, §2

Experiment [2] deals with T3, UHRF1 tandem Tudor domain (TTD) (Homo sapiens, UniProt Q96T88).
T3 construct: UHRF1 (aa 126–285); His (N, cleaved yes); made in house; host or cells: E. coli BL21 (DE3) Codon plus RIL
T3 sequence (Q96T88 126-285): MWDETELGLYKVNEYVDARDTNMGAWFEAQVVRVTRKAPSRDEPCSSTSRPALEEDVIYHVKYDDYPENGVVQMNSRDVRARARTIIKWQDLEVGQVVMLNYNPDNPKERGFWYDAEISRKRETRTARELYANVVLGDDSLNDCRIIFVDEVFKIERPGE
The experiment in a line: ITC binding to tandem Tudor domain of UHRF1. The source says:
(§3) The coding DNA fragments of following Tudor domains were cloned into pET28-MHL vector: SMN (aa 82–147), UHRF1 (aa 126–285), SMNDC1 (aa 53–130), TDRD3 (aa 554–611), SND1 (aa 650–910), TDRD2 (aa 327–420), FXR1 (aa 2–132), PHF1 (aa 28–87), SGF29 (aa 115–293), JMJD2A (aa 897–1101), 53BP1 (aa 1483–1606), SETDB1 (aa 190–410), LBR (aa 1–67), ZGPAT (aa 120–271). The coding regions of chromodomain of CBX7 (aa 8–62), PWWP domain of DNMT3A (aa 275–417), WD40 repeats of WDR5 (aa 24–334) and CW domain of ZCWPW2 (aa 21–78) were also subcloned into pET28-MHL vector to generate N-terminally His-tagged fusion protein. The MBT repeats of L3MBTL1 (aa 200–522) and L3MBTL2 (aa 170–625) were subcloned into pET28GST-LIC vector to generate N-terminally GST-His-tagged fusion protein. All the plasmids were generated by ligase independent cloning (Vazyme Biotech, C112 or ABclonal Technology, RK21020). […] The proteins were further purified by Superdex75 or Superdex200 gel-filtration column (GE Healthcare) in a buffer containing 20 mM Tris-HCl, pH 7.5, 150 mM NaCl and 1 mM DTT. For crystallization experiments, purified proteins were concentrated to 18 mg/mL for SMN, 23 mg/mL for UHRF1 and 10 mg/mL for TDRD3 in the gel-filtration buffer. All the mutations were introduced with the QuikChange II XL site-directed mutagenesis kit (Stratagene, 200522) and confirmed by DNA sequencing. Mutant proteins were also expressed in E. coli BL21 (DE3) Codon plus RIL and purified using the same procedures described above. The molecular weight of all protein samples was measured by mass spectrometry.
(§4) For the ITC measurement, the concentrated proteins were diluted into 20 mM Tris-HCl, pH 7.5, 150 mM NaCl (ITC buffer); the lyophilized compounds were dissolved in the same buffer, and the pH value was adjusted by adding 2 M NaOH or 2 M HCl. The compounds that could not be dissolved in the ITC buffer were dissolved in DMSO with the accessible highest concentration. Compound concentrations were calculated from the mass and the volume of the solvent. For the ITC assay with compound dissolved in DMSO, the protein was diluted by ITC buffer containing same final concentration of DMSO. All measurements were performed in duplicate at 25 °C, using a VP-ITC (MicroCal, Inc.), an iTC-200 (MicroCal, Inc.), or a Nano-ITC (TA, Inc.) microcalorimeter. The protein with a concentration of 50–100 μM was placed in the cell chamber, and the compounds with a concentration of 0.5–2 mM in syringe was injected in 25, 20, or 20 successive injections with a spacing of 180, 150, or 120 s for VP-ITC, iTC-200, or Nano-ITC, respectively, as previously described[30]–[32]. iTC-200 or Nano-ITC data were consistent with those from the VP-ITC instrument, based on ITC results of SMN-compound 1 detected by using all the instruments. Control experiments were performed under identical conditions to determine the heat signals that arise from injection of the compounds into the buffer. Data were fitted using the single-site binding model within the Origin software 7.0 package (MicroCal, Inc.) or the independent model within the Nano-Analyze software package (TA, Inc.).

Another experiment concerns the target T4, SMN Tudor domain (Homo sapiens, UniProt Q16637).
T4 construct: SMN (aa 82–147); His (N, cleaved yes); made in house; host or cells: E. coli BL21 (DE3) Codon plus RIL
The experiment in a line: ITC binding to Tudor domain of SMN.
Description: as §3, §4

The next experiment deals with T5, ZGPAT (Homo sapiens, UniProt Q8N5A5).
T5 construct: ZGPAT (aa 120–271); His (N, cleaved yes); made in house; host or cells: E. coli BL21 (DE3) Codon plus RIL
T5 sequence (Q8N5A5 120-271): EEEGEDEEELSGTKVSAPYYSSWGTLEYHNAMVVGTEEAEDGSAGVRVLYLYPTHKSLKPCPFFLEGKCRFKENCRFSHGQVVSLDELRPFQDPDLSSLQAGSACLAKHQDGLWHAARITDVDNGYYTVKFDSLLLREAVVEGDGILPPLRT
The experiment in a line: ITC binding to ZGPAT. As to conditions: Fig. 1c.
Description: as §1, §2

In a further experiment the target is T6, CBX7 (CD) (Homo sapiens, UniProt O95931).
T6 construct: CBX7 (aa 8–62); His (N, cleaved yes); made in house; host or cells: E. coli BL21 (DE3) Codon plus RIL
T6 sequence (O95931 8-62): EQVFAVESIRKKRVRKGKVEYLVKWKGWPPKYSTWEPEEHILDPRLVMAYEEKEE
Description: ITC binding to chromodomain of CBX7. The following applies: Fig. 1c.
Description: as §1, §2

Where [3] appears, read: ITC, Tudor domain of SMN wild type, 25 °C, read-out: Kd (SMN).

T4 sequence (Q16637 82-147): as the sequence (Q16637 82-147 N132D) above, with D51N counted along it
Sequence of TDRD3 (Q9H7E2 554-611): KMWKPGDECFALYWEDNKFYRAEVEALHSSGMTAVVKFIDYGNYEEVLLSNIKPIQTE

Regarding `Cn1c2c(c(=N)c3c1CCC3)CCC2` [Compound 1, 4-methyl-2,3,4,5,6,7-hexahydrodicyclopenta[b,e]pyridin-8(1H)-imine], the “binding to UHRF1_TTD R296-binding pocket mutants” value in experiment [1] is “totally disrupted”. Moreover, the Kd on SMN_N132D was 3.3 ± 0.1 µM; at TDRD3 it was 11 ± 1 µM; on SMN_W102A, more than 244 µM; in experiment [2], ~16 µM and 16 µM; on SMN Tudor domain (setting [3]), 2.6 ± 0.1 µM; at SMN Tudor domain (Supplementary Fig. 11a, iTC-200, read-out: Kd, ITC binding curve, SMN), 3.9 ± 0.5 µM. Further, the dissociation constant Kd at ZGPAT and on CBX7 (CD) was more than 244 µM in each case. Besides, the “selectivity of SMN and SMNDC1 Tudor domains over TDRD3” value on SMN Tudor domain (from ITC Kd) was ~ 4 fold. Moreover, at SMN Tudor domain (from ITC Kd), the “selectivity over other tested methyllysine or methylarginine binding domains” value is listed as more than 4 fold. Also, the “SMN binds more tightly than its physiological ligands” value on SMN Tudor domain (versus symmetric dimethylarginine or R1810me2s-POLR2A) is 60–180 fold.
As to `CCCn1c2c(c(=N)c3c1CCC3)CCC2` [Compound 2, 4-propyl-2,3,4,5,6,7-hexahydrodicyclopenta[b,e]pyridin-8(1H)-imine], the “Kd (UHRF1)” value in experiment [2] was “No binding”. Also, the Kd on SMN Tudor domain (setting [3]) is 9.3 ± 0.6 µM.

In general, Kd refers to the constant that tells how readily two partners part at equilibrium.
